Test results taken from patent US20240336657A1, “G-ALPHA-S PEPTIDE INHIBITORS AND USES THEREOF” (The Regents of the University of California, priority 2021, published 2024).
Positions of bridges follow the written chain, without caps; N, C: chain ends. Non-standard residues stand in square brackets, D forms with d. Residues, ends and D or L forms follow the SMILES beside them.

Target: GppNHp-bound Gαs (Homo sapiens, UniProt P63092)
Experiment: Adenylyl cyclase activity assay (Gαs-mediated adenylyl cyclase activation, cAMP production, LANCE Ultra cAMP kit)
Format: biochemical
Set-up: made in house; host or cells: Escherichia coli BL21(DE3)
Conditions: 6.25 μM of GN13; in the presence of Gβ1/γ2
Text: Active state binding cyclic peptide GN13 blocks Gαs-mediated adenylyl cyclase activation. In order to determine whether (Gαs/GppNHp) specific binders inhibit Gαs activity, we assayed the ability of Gαs to activate its downstream effector adenylyl cyclase (AC) (FIG. 17A). We refer to resynthesized active state binding cyclic peptides with a “GN” (Gαs/GppNHp) preceding their ranking number. […] We then evaluated the inhibitory effect of the top hits on Gαs-mediated adenylyl cyclase activation by measuring production of cAMP in a reconstituted Gαs activity assay (FIG. 17A). […] Cyclic peptides dose dependent inhibition (FIG. 17C). […] WT Gαs at a concentration of 8.5 mg/mL (about 190 μM) in 20 mM HEPES 8.0, 150 mM NaCl, 5 mM MgCl2, 1 mM EDTA-Na 8.0 was diluted to 0.5 μM in dilution buffer (1× PBS 7.4, 0.1% BSA, 1 mM EDTA-Na 8.0, 2 mM DTT, 0.1 mM MgCl2) plus 1 mM GppNHp. […] Reaction mixture was further incubated at room temperature for 2 hours and placed on ice for 5 minutes. cAMP production was initiated by addition of […] of ATP stock (1 mM ATP, 1× PBS 7.4, 0.1% BSA). The reaction was carried out at 30° C. for 10 minutes in a PCR machine and stopped by heating at 95° C. for 3 minutes. The cAMP concentrations were measured by the LANCE Ultra cAMP kit. […] The cAMP concentrations were measured by the LANCE Ultra cAMP kit. cAMP concentrations measurement by the LANCE Ultra cAMP kit. […]

Chain of GppNHp-bound Gαs (P63092 1-380 isoform P63092-2): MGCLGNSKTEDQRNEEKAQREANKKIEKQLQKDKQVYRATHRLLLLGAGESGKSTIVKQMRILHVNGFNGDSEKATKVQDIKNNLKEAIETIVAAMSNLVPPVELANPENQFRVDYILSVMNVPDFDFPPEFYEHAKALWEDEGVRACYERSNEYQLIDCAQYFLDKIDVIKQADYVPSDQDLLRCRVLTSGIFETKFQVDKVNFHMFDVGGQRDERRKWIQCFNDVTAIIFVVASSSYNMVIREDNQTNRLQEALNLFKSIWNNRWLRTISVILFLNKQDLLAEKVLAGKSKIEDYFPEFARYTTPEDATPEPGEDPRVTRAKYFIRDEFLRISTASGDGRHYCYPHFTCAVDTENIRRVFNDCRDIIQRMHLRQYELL

CC[C@H](C)[C@@H]1NC(=O)[C@H](C)NC(=O)[C@H](Cc2ccc(O)cc2)NC(=O)[C@H](C(C)C)NC(=O)[C@H](CO)NC(=O)[C@H](CCC(=O)O)NC(=O)[C@H](Cc2ccccc2)NC(=O)[C@@H](Cc2ccc(O)cc2)NC(=O)CSC[C@@H](C(=O)NCC(N)=O)NC(=O)[C@H](CC(C)C)NC(=O)[C@H]([C@@H](C)O)NC(=O)CNC(=O)[C@H](Cc2c[nH]c3ccccc23)NC1=O [GN13] ({CH2CO}-[dY]FESVYAIWGTLCG-NH2; thioether N-13)
inhibition of adenylyl cyclase activation by Gαs WT: inhibits
